# Measured values from patent US10576145B2, “CD200 inhibitors and methods of use thereof” (REGENTS OF THE UNIVERSITY OF MINNESOTA, priority 2014, dated 2020).
# Entries after “also recorded” stand apart in the source; their conditions may differ.
# Tested on: GL261 tumor bearing mice
# Test: GL261 glioma model: tumor lysate vaccine +/- antagonist, tumor growth by imaging and survival
# Format: in vivo, C57BL/6 mice
# Settings: for Tumor growth: tumor lysate vaccine + antagonist vs tumor lysate alone or saline, weekly imaging; for Survival: GL261 glioma model, tumor lysate vaccine + antagonist
# Procedure: FIGS. 4A-4C. FIG. 4A) GL261 tumor bearing mice were inoculated with 50 μg of antagonist 6059 one day prior to vaccination with tumor lysate (65 μg)+/−the antagonist 6059 (50 μg). FIG. 4B) Mice were imaged weekly for tumor growth. The following groups were studied: saline (1), tumor lysate (2), and tumor lysate+6059 (3). FIG. 4C) Percent survival post inoculation for saline (1), tumor lysate (2), and tumor lysate+6059 (3) groups.
# FIGS. 5A-5B. FIG. 5A) GL261 tumor bearing mice were inoculated with 10 μg of 6059 on day 2 into the tumor site then with 50 μg of antagonist 6059 one day prior to vaccination with tumor lysate (65 μg)+the antagonist 6059 (50 μg). FIG. 5B) Mice were imaged weekly for tumor growth. The following groups were studied: saline (1), tumor lysate+6059 (2), and CNS+tumor lysate+6059 (3) groups.
# Whether vaccination with CD200R antagonists could enhance the survival of tumor-bearing mice was also studied. […] GL261 tumor bearing mice were vaccinated weekly with saline, tumor lysates (TL) or tumor lysates+an antagonist (4004, 4013, 6059).
# Tumor-bearing mice were inoculated in the brain with 10 μg of the inhibitor 6059 at the same coordinates at which the tumor was injected two days previously. This was followed by weekly injections of tumor lysate+inhibitor (FIGS. 5A-5B).
# Tumors were implanted into female C57BL/6 mice (6-8 wk old) (Jackson Laboratory) and maintained in a pathogen-free facility according to the guidelines of the University of Minnesota Animal Care and Use Committee. The GL261 orthotopic transplant model was established in C57BL/6 (B6) mice by inoculation with 15,000 GL261-Luc^+ cells in 1 μl of saline. Tumors were implanted stereotactically into the right striatum; coordinates were 2.5 mm lateral, 0.5 mm anterior of bregma, and 3 mm deep from the cortical surface of the brain^19. Tumor burden was determined by bioluminescent imaging. Light emitted from the tumors was quantified using Living Image software (Xenogen) and expressed as photons per second per centimeter squared per steradian (p/s/cm^2/sr). GL261 cells for tumor lysate vaccines were cultured in neural stem cell media consisting of DMEM/F12 (1:1) with L-glutamine, sodium bicarbonate, penicillin/streptomycin (100 U/ml), B27 and N2 supplements (Life Technologies), and 0.1 mg/ml Normocin (Invivogen). Cultures were maintained at 5% 02 and supplemented with 20 ng/ml EGF and FGF semiweekly (R&D Systems, Minneapolis, Minn.). […] Mice were euthanized when tumors reached 1000 mm^3. […] Tumor cells used to establish both models were cultured in DMEM containing 10% FBS, penicillin/streptomycin (100 U/ml), and 0.1 mg/ml Normocin (Invivogen) in atmospheric oxygen.
# Tumor lysates were prepared by dissociating tumor cells with non-enzymatic dissociation solution (Sigma). Cells were then washed 3 times with PBS, re-suspended in 500 μL PBS, and frozen overnight at −80° C. Cells were then lysed by five freeze/thaw cycles of freezing in liquid nitrogen and thawing in a 55° C. water bath. Cell debris was pelleted by centrifugation at 14,000 RCF, and the protein concentration of the supernatant was determined using a Bradford assay. Lysates were stored at −80° C. until use. Each vaccine was prepared on the day of vaccination and consisted of 65 μg of protein tumor lysate and 10 μg Poly:ICLC (Oncovir, Inc.), with or without 50 μg of the 6059 peptide antagonist, in a final volume of 100 μL injected intradermally in the back of the neck. For survival studies, vaccines were administered weekly starting three days post-tumor implantation for a total of 6 doses. In T cell priming experiments, CD8 T-cell priming experiments, animals were vaccinated intradermally on four consecutive days with 100 μg Ovalbumin (OVA) and 10 μg Poly:ICLC, and once more on day eleven^19.
sequence,measurement,setting,value
NTIGDGGCY [Antagonist 6059],Tumor growth after inoculation of the inhibitor into the CNS tumor site,"GL261, 10 μg in the brain on day 2, then tumor lysate + inhibitor",Tumor growth was delayed; also recorded: further suppressed tumor growth
same,Survival enhancement / survival benefit,"GL261, tumor lysate + antagonist",30%
same,Tumor growth,GL261,tumors grow faster in mice vaccinated with saline or tumor lysate alone compared to mice vaccinated with tumor lysate plus an antagonist; also recorded: slowed tumor growth
same,Tumor growth,"GL261, listed as CD200R antagonist",statistically significant inhibition of tumor growth
same,Survival,,increased survival benefit; also recorded: enhancing survival
same,Survival,listed as CD200R antagonist,enhanced survival benefit
